ChEMBL document CHEMBL1201862, “PubChem BioAssay data set” (2004)
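Briefly, cells in 96-well plates were exposed to five compound concentrations for 48 h, and endpoints were estimated by linear interpolation. Here, GI50 denotes the concentration required for 50% inhibition of growth.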 Active and inactive are the calls of the source. Rule as the data show it: active = GI50 up to about 1.1 µM and inactive = higher.

Key:
Assay in all cases: NCI anticancer screen, dose series, 48 h
HT-29 = tested on: HT-29
OVCAR-4 = tested on: OVCAR-4
UACC-62 = tested on: UACC-62
NCI-H460 = tested on: NCI-H460
SNB-75 = tested on: SNB-75
LXFL 529 = tested on: LXFL 529
DMS-273 = tested on: DMS-273
SK-MEL-2 = tested on: SK-MEL-2
KM12 = tested on: KM12
HOP-62 = tested on: HOP-62
MOLT-4 = tested on: MOLT-4
HOP-92 = tested on: HOP-92
OVCAR-5 = tested on: OVCAR-5
A549 = tested on: A549
NCI-H226 = tested on: NCI-H226
CAKI-1 = tested on: CAKI-1
LOX IMVI = tested on: LOX IMVI

Measured: GI50

N/N=c1\c2ccccc2c2ccc3c4ccccc4/c(=N\N)c3c12
inactive: HT-29 > 100 µM | OVCAR-4 > 100 µM | UACC-62 > 100 µM | NCI-H460 > 100 µM | SNB-75 37.3 µM | LXFL 529 > 100 µM | DMS-273 > 100 µM | SK-MEL-2 > 100 µM | KM12 > 100 µM | HOP-62 > 100 µM | MOLT-4 > 100 µM | HOP-92 > 100 µM | OVCAR-5 > 100 µM | A549 > 100 µM | NCI-H226 > 100 µM

c1ccc(N2CCN(CCCN3CCc4c([nH]c5ccccc45)C3c3cccnc3)CC2)cc1 (configuration not stated)
inactive: HT-29 22.9 µM | CAKI-1 > 100 µM | LOX IMVI 41.2 µM | OVCAR-4 98.9 µM | UACC-62 > 100 µM | NCI-H460 48.3 µM | SNB-75 > 100 µM | LXFL 529 > 74.5 µM | DMS-273 > 47 µM | SK-MEL-2 > 100 µM | KM12 51.4 µM | HOP-62 > 100 µM | MOLT-4 30.4 µM | HOP-92 > 100 µM | OVCAR-5 > 100 µM | A549 > 100 µM | NCI-H226 > 100 µM

CN(C)c1ccc(C=C2C(=O)OC(C)(C)OC2=O)cc1Br
inactive: HT-29 > 100 µM | CAKI-1 > 100 µM | LOX IMVI > 100 µM | OVCAR-4 > 100 µM | UACC-62 > 100 µM | NCI-H460 > 100 µM | SNB-75 29.5 µM | LXFL 529 > 100 µM | DMS-273 > 100 µM | SK-MEL-2 > 100 µM | KM12 > 100 µM | HOP-62 > 100 µM | MOLT-4 > 100 µM | HOP-92 29.4 µM | OVCAR-5 > 100 µM | A549 > 100 µM | NCI-H226 > 100 µM

COc1ccc(NC(=O)C(=O)Cc2ccc([N+](=O)[O-])c([N+](=O)[O-])c2CC(=O)C(=O)Nc2ccc(OC)cc2OC)c(OC)c1
inactive: HT-29 > 100 µM | CAKI-1 > 100 µM | LOX IMVI > 100 µM | OVCAR-4 > 100 µM | UACC-62 > 100 µM | NCI-H460 > 100 µM | SNB-75 96.2 µM | LXFL 529 > 100 µM | DMS-273 > 100 µM | KM12 > 100 µM | HOP-62 > 100 µM | MOLT-4 > 100 µM | HOP-92 > 100 µM | OVCAR-5 > 100 µM | A549 > 100 µM | NCI-H226 > 100 µM

CC(C)COC(=O)N1N=NC2C3CC(=O)C(O3)C21 (configuration not stated)
inactive: HT-29 > 100 µM | CAKI-1 > 100 µM | LOX IMVI > 100 µM | OVCAR-4 > 100 µM | UACC-62 > 100 µM | NCI-H460 > 100 µM | SNB-75 > 100 µM | LXFL 529 > 100 µM | DMS-273 > 100 µM | SK-MEL-2 > 100 µM | KM12 > 100 µM | HOP-62 > 100 µM | MOLT-4 > 100 µM | HOP-92 > 100 µM | OVCAR-5 > 100 µM | A549 > 100 µM

CCc1cccc(CC)c1NC1=CC(=O)C(=O)c2ccccc21
inactive: HT-29 2.06 µM | CAKI-1 18.9 µM | LOX IMVI 9.84 µM | OVCAR-4 13.7 µM | UACC-62 14 µM | NCI-H460 19 µM | SNB-75 22.8 µM | LXFL 529 19.4 µM | DMS-273 19.2 µM | SK-MEL-2 14.6 µM | KM12 15.4 µM | HOP-62 19.5 µM | MOLT-4 45.7 µM | HOP-92 15.1 µM | OVCAR-5 17.1 µM | A549 18.6 µM | NCI-H226 23 µM

O/N=C/c1ncccc1C1OCCO1
inactive: HT-29 > 100 µM | CAKI-1 > 100 µM | LOX IMVI > 100 µM | OVCAR-4 > 100 µM | UACC-62 > 100 µM | NCI-H460 > 100 µM | SNB-75 > 100 µM | LXFL 529 > 100 µM | DMS-273 > 100 µM | SK-MEL-2 > 100 µM | KM12 > 100 µM | HOP-62 > 100 µM | MOLT-4 > 100 µM | HOP-92 > 100 µM | OVCAR-5 > 100 µM | A549 > 100 µM | NCI-H226 > 100 µM

C/C(=N\NC(=S)Nc1ccc(C(=O)O)cc1)c1ccccn1
inactive: HT-29 34.7 µM | CAKI-1 29.5 µM | LOX IMVI 16.7 µM | OVCAR-4 15.1 µM | UACC-62 5.04 µM | NCI-H460 21.6 µM | SNB-75 20.5 µM | LXFL 529 3.05 µM | DMS-273 24 µM | SK-MEL-2 17.6 µM | KM12 25.5 µM | HOP-62 30.5 µM | MOLT-4 33.3 µM | HOP-92 43.6 µM | OVCAR-5 21.3 µM | A549 39.1 µM | NCI-H226 18.2 µM

Cc1cccc(NC(=O)C(=O)C(C(=O)c2ccccc2F)C2OC(=O)c3ccccc32)c1Cl (configuration not stated)
inactive: HT-29 31.5 µM | CAKI-1 61.4 µM | LOX IMVI 17.7 µM | OVCAR-4 43.9 µM | UACC-62 23.2 µM | NCI-H460 33.7 µM | SNB-75 20.5 µM | LXFL 529 24.3 µM | DMS-273 24.7 µM | SK-MEL-2 16.8 µM | KM12 25 µM | HOP-62 37.4 µM | MOLT-4 30.3 µM | HOP-92 52.7 µM | OVCAR-5 60 µM | A549 36.4 µM | NCI-H226 32.4 µM

CC1(c2ccc(F)cc2)C(C#N)C(=O)NC(=O)C1C#N (configuration not stated)
inactive: HT-29 > 100 µM | CAKI-1 > 100 µM | LOX IMVI > 100 µM | OVCAR-4 > 100 µM | UACC-62 > 100 µM | NCI-H460 > 100 µM | SNB-75 32.3 µM | LXFL 529 > 100 µM | DMS-273 > 100 µM | SK-MEL-2 > 100 µM | KM12 > 100 µM | HOP-62 75.2 µM | MOLT-4 > 100 µM | HOP-92 > 100 µM | OVCAR-5 > 100 µM | A549 > 100 µM | NCI-H226 > 100 µM

CC(=O)OCc1nnn2c1C(OC(C)=O)CC2 (configuration not stated)
inactive: HT-29 > 100 µM | CAKI-1 > 100 µM | OVCAR-4 > 100 µM | UACC-62 > 100 µM | NCI-H460 > 100 µM | SNB-75 20.1 µM | LXFL 529 > 100 µM | DMS-273 > 100 µM | SK-MEL-2 > 100 µM | KM12 > 100 µM | MOLT-4 > 100 µM | HOP-92 > 100 µM | OVCAR-5 > 100 µM | A549 > 100 µM | NCI-H226 > 100 µM

CN1C=C(C(N)=O)Cc2ccsc21
inactive: HT-29 > 100 µM | CAKI-1 > 100 µM | OVCAR-4 > 100 µM | UACC-62 > 100 µM | NCI-H460 > 100 µM | SNB-75 > 100 µM | LXFL 529 > 100 µM | DMS-273 > 100 µM | SK-MEL-2 > 100 µM | KM12 > 100 µM | HOP-62 > 100 µM | MOLT-4 > 100 µM | HOP-92 > 100 µM | OVCAR-5 > 100 µM | A549 > 100 µM | NCI-H226 > 100 µM

CCOC(=O)Nc1ccc(S(=O)(=O)OC)cc1.CCOC(=O)Nc1ccc(S(=O)(=O)OC)cc1.Cc1cn(C2CC(O)C(CO)O2)c(=O)[nH]c1=O
inactive: HT-29 54.8 µM | CAKI-1 > 100 µM | LOX IMVI 18.3 µM | OVCAR-4 86.3 µM | UACC-62 > 100 µM | NCI-H460 > 100 µM | SNB-75 > 100 µM | LXFL 529 > 100 µM | DMS-273 > 100 µM | SK-MEL-2 > 100 µM | KM12 > 100 µM | HOP-62 > 100 µM | MOLT-4 > 100 µM | HOP-92 > 100 µM | OVCAR-5 > 100 µM | A549 > 100 µM | NCI-H226 > 100 µM

COC(=O)CCC(=O)CC(=O)C1=NS(=O)(=O)c2nc(S(N)(=O)=O)c(Cl)cc2N1
inactive: HT-29 > 100 µM | CAKI-1 > 100 µM | LOX IMVI 70.5 µM | OVCAR-4 > 100 µM | UACC-62 > 100 µM | NCI-H460 > 100 µM | SNB-75 > 100 µM | LXFL 529 > 100 µM | DMS-273 72.3 µM | SK-MEL-2 > 100 µM | KM12 > 100 µM | HOP-62 > 100 µM | MOLT-4 > 100 µM | HOP-92 > 100 µM | OVCAR-5 > 100 µM | A549 > 100 µM | NCI-H226 > 100 µM

CCC1N2CCCCC2[C@@H]2c3[nH]c4ccccc4c3CCN12 (some centres not stated)
inactive: HT-29 > 100 µM | CAKI-1 > 100 µM | OVCAR-4 > 100 µM | UACC-62 > 100 µM | NCI-H460 > 100 µM | SNB-75 77.8 µM | LXFL 529 > 100 µM | DMS-273 > 100 µM | SK-MEL-2 > 100 µM | HOP-62 > 100 µM | MOLT-4 > 100 µM | HOP-92 > 100 µM | OVCAR-5 > 100 µM | A549 > 100 µM

CC(C)(C1=NC(C(C)(C)C)CO1)C1=N[C@@H](C(C)(C)C)CO1 (some centres not stated)
inactive: HT-29 > 100 µM | LOX IMVI > 100 µM | OVCAR-4 > 100 µM | UACC-62 > 100 µM | NCI-H460 > 100 µM | SNB-75 > 100 µM | LXFL 529 > 100 µM | DMS-273 > 100 µM | SK-MEL-2 > 100 µM | KM12 > 100 µM | HOP-62 > 100 µM | MOLT-4 > 100 µM | HOP-92 > 100 µM | OVCAR-5 > 100 µM | A549 > 100 µM | NCI-H226 > 100 µM

S=P1(Oc2ccccc2)NNP2(=NP(N3CC3)(N3CC3)=NP(N3CC3)(N3CC3)=N2)NN1 (configuration not stated)
inactive: HT-29 > 100 µM | CAKI-1 > 100 µM | LOX IMVI > 100 µM | OVCAR-4 > 100 µM | UACC-62 98.4 µM | NCI-H460 37.6 µM | SNB-75 64.4 µM | LXFL 529 > 100 µM | DMS-273 76.4 µM | SK-MEL-2 > 100 µM | KM12 > 100 µM | HOP-62 49.4 µM | MOLT-4 19.6 µM | OVCAR-5 > 100 µM | A549 > 100 µM | NCI-H226 > 100 µM
